In patent US20100168085A1, “Dopamine and agonists and antagonists thereof for modulation of suppressive activity of CD4+CD25+ regulatory T cells” (YESA RESEARCH AND DEVELOPMENT CO. LTD. at the Weizmann …, priority 2003, published 2010):

Tests used:
[1] = tested on: TGF-β1 transcripts in Treg; settings: after dopamine treatment
Excerpt: (xx) Polymerase chain reaction (PCR). Total RNA was purified with the RNeasy Mini Kit (Qiagen, Germantown, Md.) and transcribed into cDNA using poly dT primers. For PCR the following primers were used: […]
Because the suppressive effect of Treg on Teff is partly due to transforming growth factor (TGF)-β1 (Nakamura et al., 2001), we measured whether exposure of Treg to dopamine affects the level of TGF-β1 expression.

[2] = tested on: suppressive activity of Treg in vivo (neuronal survival); settings: Treg incubated with dopamine (10^−5 M, 2 h) prior to systemic injection
Excerpt: To unequivocally show the direct effect of dopamine on Treg activity in vivo, we examined whether direct exposure of Treg to dopamine can reduce their suppressive activity in a model of neuronal survival.

NCCc1ccc(O)c(O)c1 [dopamine, 3,4-dihydroxyphenethylamine]
Transcripts encoding TGF-β1 in Treg [1]: decreased | Suppressive effect of injected Treg on neuronal survival [2]: abolished their suppressive effect
